# EP4755885A1 (Shanghai Hansoh Biomedical Co., Ltd., priority 2023, dated 2025)
# Experiments:
# [1] = Pharmacokinetic evaluation in mice, oral administration; type: in vivo, Balb/c mice; settings: p.o. 5 mg/kg, plasma; for AUC(0-inf) / AUC(0-t) / Cmax / Tmax / MRT inf: mouse, in vivo, po; for MRT inf: read-out: MRT 0-∞
# Method: Balb/c mice were used as test animals to study the pharmacokinetic behavior of the compound of the present invention in mice (plasma) at a dose of 5 mg/kg administered orally and 1 mg/kg administered intravenously.
# Balb/c mice, 3 per group, male.
# (§1) Preparation of drug for oral administration: 10%PEG400/10%PG/80% glycine buffer (100 mM glycine, 64 Mm NaOH, […]) buffer.
# 10 ml of PEG400, 10 ml of PG, and 80 ml of (100 mM glycine, 64 Mm NaOH, pH = 9) were measured into a 100 ml volumetric flask, vortexed, mixed homogeneously, and sonicated to obtain a clear solution.
# Single PK: An example compound was weighed into a 4 mL glass bottle. The solution was added, and sonication was performed for 10 min to obtain a colorless clear solution having a concentration of 0.5 mg/mL.
# The solution was added, and sonication was performed for 10 min to obtain a colorless clear solution having a concentration of 0.5 mg/mL.
# Three Balb/c mice, male, respectively administered p.o. after fasting overnight, at a dose of 5 mg/kg and in an administration volume of 10 mL/kg.
# The blood samples were placed in EDTA-K2 anticoagulant tubes and centrifuged at 6000 rpm at 4°C for 6 min to separate plasma, which was stored at -80°C. The mice were fed 4 h after administration.
# (§2) • 1) 40 µL of a plasma sample was added with 160 µL of acetonitrile for precipitation, and after mixing, the mixture was centrifuged at 3500 × g for 5 to 20 min. • 2) The supernatant solution after treatment was taken for LC/MS/MS analysis of the concentration of the test compound. The LC/MS/MS analysis instrument was AB Sciex API 4000 Qtrap.
# • Liquid phase condition: Shimadzu LC-20AD pump • Chromatographic column: Agilent ZORBAX XDB-C18 (50×2.1 mm, 3.5 µm) Mobile phase: Solution A was 0.1% formic acid aqueous solution, and Solution B was acetonitrile • Flow rate: 0.4 mL/min • Elution time: 0-4.0 min, the eluent was as follows:
# Main pharmacokinetic parameters were calculated using WinNonlin 6.1.
# [2] = Pharmacokinetic evaluation in beagles, oral administration; type: in vivo; settings: dog, po, p.o. 2 mg/kg, plasma
# Method: Beagles were used as test animals to study the pharmacokinetic behavior of the compound of the present invention, administered orally at a dose of 2 mg/kg, in beagles (plasma).
# Beagles, 3 per group, male.
# as §1
# (§3) Single PK: The compound of the present invention was weighed into a 100 mL glass bottle, and the solution was added. The pH was first adjusted with 1 M NaOH until the compound dissolves to obtain a clear solution, and then the pH was readjusted to pH 9.0-9.5 with 1 M HCl. Sonication was performed for 10 min to obtain a colorless clear solution having a concentration of 0.4 mg/mL.
# Three beagles, male, respectively administered p.o. after fasting overnight, at a dose of 2 mg/kg and in an administration volume of 5 mL/kg.
# (§4) Blood collection: 0.3 mL of blood was collected from the forelimb vein of the beagles before administration and at 0.25, 0.5, 1, 2, 4, 6, 8, and 24 h after administration. The blood samples were placed in EDTA-K2 anticoagulant tubes and centrifuged at 6000 rpm at 4°C for 6 min to separate plasma, which was stored at -80°C. The beagles were fed 4 h after administration.
# as §2
# (§5) • Liquid phase condition: Shimadzu LC-20AD pump • Chromatographic column: Agilent ZORBAX XDB-C18 (50×2.1 mm, 3.5 µm) Mobile phase: Solution A was 0.1% formic acid aqueous solution, and Solution B was acetonitrile • Flow rate: 0.4 mL/min • Elution time: 0-4.0 min, the eluent was as follows: […]
# human GLP-1 receptor [3] = biological target: T1, human GLP-1 receptor (Homo sapiens, UniProt P43220); assay: cAMP production in cell line stably transformed with human GLP1 receptor, 2 h co-incubation (HTRF); type: cell-based; settings: CHO-K1/GLP-1R/CRE-luc cells, stimulation for 2 h, read-out: EC50
# T1 construct: expressed in transfected cells
# T1 sequence (P43220 24-463): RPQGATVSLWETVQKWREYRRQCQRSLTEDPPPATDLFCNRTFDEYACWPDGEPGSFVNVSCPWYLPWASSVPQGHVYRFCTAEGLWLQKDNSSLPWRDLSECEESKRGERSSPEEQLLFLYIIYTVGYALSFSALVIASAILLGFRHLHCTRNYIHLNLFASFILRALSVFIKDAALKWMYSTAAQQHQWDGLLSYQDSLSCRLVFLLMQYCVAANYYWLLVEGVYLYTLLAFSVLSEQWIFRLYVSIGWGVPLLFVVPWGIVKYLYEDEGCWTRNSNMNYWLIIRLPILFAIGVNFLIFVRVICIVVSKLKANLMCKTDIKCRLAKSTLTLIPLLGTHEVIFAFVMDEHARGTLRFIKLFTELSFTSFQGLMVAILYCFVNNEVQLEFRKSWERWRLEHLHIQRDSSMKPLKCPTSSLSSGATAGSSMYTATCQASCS
# Method: (§6) The purpose of this assay example is to test the ability of the compound to activate the human GLP-1 receptor on cell surface. The EC50 for stimulated cAMP production after activation characterizes the ability of the compound to activate the human GLP-1 receptor.
# In this experiment, the compound and cells were co-incubated for 2 h.
# (§7) Frozen cell line CHO-K1/GLP-1R/CRE-luc stably transformed with human GLP1 receptor was removed from a liquid nitrogen tank, and was placed in a 37°C water bath for rapid thawing. The cells were resuspended in DMEM/F12 medium, and after centrifugation, were washed once. The cells were resuspended in an experimental buffer, i.e., DMEM/F12 medium containing 0.1% casein. After centrifugation, cell density was adjusted using the experimental buffer. The cells were plated onto a 384-well plate at a density of 1500 cells/5 µL/well. Then, each well was added with 2.5 µL of IBMX working solution prepared with the buffer, the final concentration of IBMX being 0.5 mM, and 2.5 µL of a serially diluted compound sample (starting from […], 3-fold dilution, 12 concentrations). The plate was centrifuged at 1000 rpm for 1 min, and was stood for incubation at 37°C for 2 h. Determination was performed using the Cisbio cAMP - Gs Dynamic kit. cAMP-d2 and anti-cAMP-Eu3+-Cryptate were diluted 18-fold and 20-fold respectively with cAMP Lysis & Detection Buffer, and were respectively mixed homogeneously. Each well was added with 5 µL of diluted cAMP-d2 solution, and the plate was centrifuged at 1000 rpm for 1 min, and shaken for 30 seconds for homogeneous mixing. Then, each well was added with 5 µL of diluted anti-cAMP-Eu3+-Cryptate solution, and the plate was centrifuged at 1000 rpm for 1 min and was incubated in the dark at room temperature for 1 h. HTRF signals were read using the Biotek Synergy H1 microplate reader, the excitation wavelength being 320 nm and the emission wavelengths being 620 nm and 665 nm.
# (§8) The signal-to-signal ratio was calculated (665 nm/620 nm * 10,000). Nonlinear fitting between the signal-to-signal ratio and the sample concentration was performed in GraphPad Prism 10 using a four-parameter equation to obtain the EC50 value.
# [4] = Pharmacokinetic evaluation in Macaca fascicularis monkeys, oral administration; type: in vivo; settings: cynomolgus monkey, p.o. 5 mg/kg, plasma
# Method: Macaca fascicularis monkeys were used as test animals to study the pharmacokinetic behavior of the compound of the present invention, administered orally at a dose of 5 mg/kg, in Macaca fascicularis monkeys (plasma).
# Macaca fascicularis monkeys, 3 per group, male.
# as §1
# as §3, with “1” for “0.4”
# Three Macaca fascicularis monkeys, male, respectively administered p.o. after fasting overnight, at a dose of 5 mg/kg and in an administration volume of 5 mL/kg.
# as §4, with “Macaca fascicularis monkeys” for “beagles”
# as §2, §5
# human GLP-1 receptor [5] = biological target: T1, human GLP-1 receptor; assay: cAMP production in cell line stably transformed with human GLP1 receptor, 30 min co-incubation (HTRF); type: cell-based; settings: CHO-K1/GLP-1R/CRE-luc cells, stimulation for 0.5 h, read-out: EC50
# Method: as §6
# In this experiment, the compound and cells were co-incubated for 30 min.
# as §7, with “for 0.5” for “for 2”
# as §8
# [6] = Pharmacokinetic evaluation in rats, oral administration; set-up: species or system SD rats; settings: rat, in vivo, p.o. 5 mg/kg, plasma; for MRT inf: read-out: MRT 0-∞
# Method: SD rats were used as test animals to study the pharmacokinetic behavior of the following example compounds, administered orally at a dose of 5 mg/kg, in the plasma of the rats. SD rats, 3 per group, male. […] An example compound was weighed and added to a 4 mL glass bottle, and the solution was added. […] Sonication was performed for 10 min to obtain a colorless clear solution having a concentration of 0.5 mg/mL. […] The blood samples were placed in EDTA-K2 tubes and centrifuged at 6000 rpm at 4°C for 6 min to separate plasma, which was stored at -80°C. […] • Liquid phase conditions: Shimadzu LC-20AD pump • Mass spectrometry conditions: AB Sciex API 4000 mass spectrometer • Chromatographic column: phenomenex Gemiu 5 um C18 50 × 4.6 mm • Mobile phase: Solution A was 0.1% formic acid aqueous solution, and Solution B was methanol • Flow rate: 1.0 mL/min • Elution time: 0-4.0 min, the eluent was as follows: […] The results of the rat pharmacokinetic experiment are shown in the table below: Table 5: Pharmacokinetic parameters of oral administration of the compound of the present invention in rats
# [7] = not marked single PK (cassette PK)
SMILES,AUC(0-inf) ([1]; single PK),AUC(0-t) ([1]; single PK),Cmax ([1]; single PK),Tmax ([1]; single PK),MRT inf ([1]; single PK),tl/2 ([1]; single PK),EC50 (human GLP-1 receptor [5]),AUC(0-inf) [6],AUC(0-t) [6],Cmax [6],Tmax [6],half-life [6],MRT inf [6],further results
Cc1cc(-n2nc3c(c2-n2ccn(-c4ccc5c(cnn5C5CC5)c4F)c2=O)[C@H](C)N(C(=O)c2cc4cc([C@H]5CCOC(C)(C)C5)ccc4n2[C@@]2(c4noc(=O)[nH]4)[C@@H]4COC[C@@H]42)CC3)cc(C)c1F [Example 65-1],10900 ng·h/mL,10600 ng·h/mL,1220 ng/mL,2.7 h,6.5 h,4.8 h,,,,,,,,AUC(0-inf) [2]: 43900 ng·h/mL; AUC(0-t) at 24 h [2]: 41000 ng·h/mL; half-life [2]: 5.9 h; Cmax ([2]; read-out: Cmax): 4360 ng/mL; MRT inf ([2]; read-out: MRT 0-∞): 8.1 h; Tmax ([2]; read-out: tmax): 2.8 h; EC50 (human GLP-1 receptor [3]): 60 pM; AUC(0-inf) [4]: 30800 ng·h/mL; AUC(0-t) [4]: 29700 ng·h/mL; Cmax [4]: 4460 ng/mL; Tmax [4]: 2 h; half-life [4]: 5.6 h; MRT inf ([4]; read-out: MRT 0-∞): 7.5 h
Cc1cc(-n2nc3c(c2-n2ccn(-c4ccc5c(c4F)CCc4nnc(C)n4-5)c2=O)[C@H](C)N(C(=O)c2cc4cc([C@H]5CCOC(C)(C)C5)ccc4n2[C@@]2(c4noc(=O)[nH]4)C[C@@H]2C)CC3)cc(C)c1F [Example 339],,,,,,,510 pM,,,,,,,
Cc1cc(-n2nc3c(c2-n2ccn(-c4cc5c6c(c4)OCC(=O)N6CCC5)c2=O)[C@H](C)N(C(=O)c2cc4cc([C@H]5CCOC(C)(C)C5)ccc4n2[C@@]2(c4noc(=O)[nH]4)C[C@@H]2C)CC3)cc(C)c1F [Example 41],,,,,,,900 pM,,,,,,,
Cc1cc(-n2nc3c(c2-n2ccn(-c4ccc5c(c4)CCc4nnnn4-5)c2=O)[C@H](C)N(C(=O)c2cc4cc([C@H]5CCOC(C)(C)C5)ccc4n2[C@@]2(c4noc(=O)[nH]4)C[C@@H]2C)CC3)cc(C)c1F [Example 342],,,,,,,1500 pM,,,,,,,
Cc1cc(-n2nc3c(c2-n2ccn(-c4ccc5c6c(nn5C)CCCOc46)c2=O)[C@H](C)N(C(=O)c2cc4cc([C@H]5CCOC(C)(C)C5)ccc4n2[C@@]2(c4noc(=O)[nH]4)C[C@@H]2C)CC3)cc(C)c1F [Example 35],41000 ng·h/mL,32900 ng·h/mL,3070 ng/mL,1.2 h,13.9 h,10.3 h,,14100 ng·h/mL,12400 ng·h/mL,1110 ng/mL,4.7 h,7.2 h,11.5 h,
Cc1cc(-n2nc3c(c2-n2ccn(-c4ccc5c(cnn5C5CC5)c4F)c2=O)[C@H](C)N(C(=O)c2cc4cc([C@H]5CCOC(C)(C)C5)ccc4n2[C@@]2(c4noc(=O)[nH]4)C[C@@H]2C)CC3)cc(C)c1F [Example 25],,,,,,,,37300 ng·h/mL,28500 ng·h/mL,1960 ng/mL,6 h,10.5 h,16.4 h,"AUC(0-inf) [1, 7]: 39000 ng·h/mL; AUC(0-t) [1, 7]: 30500 ng·h/mL; Cmax [1, 7]: 2060 ng/mL; Tmax [1, 7]: 2 h; MRT inf [1, 7]: 15.2 h; tl/2 [1, 7]: 10.7 h"
